The subject of data set [1] is HCV replicon. Briefly: microbe, parasite or virus in culture. Conditions: Hepatitis C virus, 48 h, read-out: Replicon IC5Os. In kind it is cell-based.

pIC50: −log10 of the molar value.

As for `CCOC(=O)Nc1ccc(-c2c(C#N)c3ccc(OC)cc3n2CCOC)cc1` [Compound 676], the melting point fell in the range of 174 to 175 °C. Moreover, the pIC50 in data set [1] was 5.70 to 6.30.
In the case of `CCCOC(=O)Nc1ccc(-c2c(C#N)c3ccc(OC)cc3n2CCOC)cc1` [Compound 677], the melting point was 133 to 134 °C. Further, the pIC50 in data set [1] was 5.70 to 6.30.
For the molecule `CCNC(=O)N1CCc2cc(-c3c(C#N)c4ccc(OC)cc4n3CC)ccc21` [Compound 679], the melting point fell in the range of 212 to 220 °C. The pIC50 in data set [1] was 5.70 to 6.30.
For `CCCNC(=O)N1CCc2cc(-c3c(C#N)c4ccc(OC)cc4n3CC)ccc21` [Compound 680], in that order: 163 to 168 °C and more than 6.30.
The corresponding values for `CCn1c(-c2ccc3c(c2)CCN3C(=O)NC(C)C)c(C#N)c2ccc(OC)cc21` [Compound 681] are 192 to 197 °C and 5.70 to 6.30.
`CCOc1ccc2c(C#N)c(-c3ccc(N(C)S(C)(=O)=O)cc3)n(C3CCC3)c2c1` [Compound 690]: the melting point was 192 to 193 °C. Moreover, the pIC50 in data set [1] is 5.70 to 6.30.
For `CCOc1ccc2c(C#N)c(-c3ccc(N(C)S(=O)(=O)CC)cc3)n(C)c2c1` [Compound 692], in that order: 175 to 176 °C and 5.70 to 6.30.
The corresponding values for `CCOc1ccc2c(C#N)c(-c3ccc(N(C)S(=O)(=O)CC)cc3)n(CC)c2c1` [Compound 693] are 163 to 164 °C and more than 6.30.
In turn, `CCn1c(-c2ccc(N3CCCS3(=O)=O)cc2)c(C#N)c2ccc(OCCF)cc21` [Compound 699] gave a melting point of 255 to 258 °C. For the same molecule, in data set [1], the pIC50 is more than 6.30.
For `CCn1c(-c2ccc3c(c2)CCN3S(C)(=O)=O)c(C#N)c2ccc(OC)cc21` [Compound 701], in that order: 188 to 194 °C and 5.70 to 6.30.
Turning to `CCn1c(-c2ccc3c(c2)CCN3S(=O)(=O)CC)c(C#N)c2ccc(OC)cc21` [Compound 702], the melting point fell in the range of 147 to 150 °C. Besides, in data set [1], the pIC50 was 5.70 to 6.30.
For `CCCCn1c(-c2ccc(NS(=O)(=O)CC)cc2)c(C#N)c2ccc(OC)cc21` [Compound 707], in that order: 159 to 161 °C and 5.70 to 6.30.
The corresponding values for `CCCCn1c(-c2ccc(NS(=O)(=O)C3CC3)cc2)c(C#N)c2ccc(OC)cc21` [Compound 709] are 166 to 168 °C and more than 6.30.
The corresponding values for `CCCn1c(-c2ccc(NS(=O)(=O)CC)cc2)c(C#N)c2cc(OCc3ccccc3)ccc21` [Compound 713] are 199 to 202 °C and 5.70 to 6.30.
For the molecule `COc1ccc2c(C#N)c(-c3ccc(N4CCCS4(=O)=O)cc3)n(CC(C)C)c2c1` [Compound 717], the melting point was in the range of 205 to 207 °C. For the same molecule, in data set [1], the pIC50 was 5.70 to 6.30.
`COc1ccc2c(C#N)c(-c3cccc(NS(C)(=O)=O)c3)n(C3CCCC3)c2c1` [Compound 720] yielded a melting point of 172 to 178 °C. In addition, in data set [1], the pIC50 is 5.70 to 6.30.
In turn, `COc1ccc2c(C#N)c(-c3cccc(NC(=O)OC(C)C)c3)n(C3CCCC3)c2c1` [Compound 723] returned a melting point of 175 to 180 °C. For the same molecule, the pIC50 in data set [1] is 5.70 to 6.30.
The corresponding values for `CCn1c(-c2ccc(N3CCN(Cc4ccccc4)S3(=O)=O)cc2)c(C#N)c2ccc(OC)cc21` [Compound 727] are 217 to 218 °C and 5.70 to 6.30.
For `CCn1c(-c2ccc(N3CCCC3=O)cc2)c(C#N)c2ccc(OC(C)C)cc21` [Compound 731], in that order: 173 to 174 °C and more than 6.30.
As for `COc1ccc2c(C#N)c(-c3ccc(N4CCCC4=O)cc3)n(CCF)c2c1` [Compound 732], the melting point is 219 to 221 °C. Further, the pIC50 in data set [1] was 5.70 to 6.30.
In turn, `COC(=O)Nc1ccc(-c2c(C#N)c3ccc(OC(F)F)cc3n2CC2CC2)cc1` [Compound 734] came in with a melting point of 167 to 169 °C. The pIC50 in data set [1] was 5.70 to 6.30.

These data come from US8013006B2.
